Measurements as given in patent publication US10941158B2, “Pyrazole ACC inhibitors and uses thereof” (Gilead Apollo, LLC, priority 2015, dated 2021).
Converted amounts (≈) assume the structure as drawn. Where two headings read alike, the source gives them in different places.

Assays:
[1] = system: C. parapsilosis ATCC 22019; assay: Anti-Fungal (Candida) Activity Assay, broth microtiter MIC; format: cell-based; details: Lodderomyces parapsilosis, read-out: MIC C. parapsilosis ATCC 22019
Method: (§1) Compounds of the present invention were evaluated in an Anti-Fungal Activity Assay. An exemplary procedure for the assay, which measures the susceptibility of various Candida species to anti-fungal compounds, follows. Compounds to be tested (including fluconazole and amphotericin B) were dissolved in DMSO to obtain a solution having a concentration of 1 mg/mL. […] All species were grown from frozen stock by directly plating on to freshly prepared Sabouraud Dextrose agar (BD, Difco) and incubated overnight in ambient air at 35° C. for 24 h. A direct suspension was prepared in RPMI 1640+MOPS (Lonza, Biowhittaker) by taking individual colonies from the overnight cultures using sterile swabs soaked in sterile saline. The concentration of the suspension was determined using pre-determined standard curves. […] Broth microtiter MIC challenge plates were prepared following CLSI guidelines (M27-A3, Vol. 28 No. 14). The original CLSI guidelines focused on reading Candida MICs after 48 h of incubation. As reading after only 24 h offers a clear advantage of patient care, QC limits are being established for all drugs at 24 h. That being said there are no known interpretive breakpoints for amphotericin B at 24 h and the current fluconazole interpretive breakpoints are based on a 48 h reading. The MIC for the test compounds were recorded at 48 h. All MIC determinations were achieved by visually comparing the growth found in the antibiotic challenged wells to that of the growth control.

[2] = system: C. krusei ATCC 6258; assay: as above; format: cell-based; details: Pichia kudriavzevii, read-out: MIC C. krusei ATCC 6258
Method: as §1

[3] = system: C. albicans ATCC 90028; assay: as above; format: cell-based; details: read-out: MIC C. albicans ATCC 90028
Method: as §1

[4] = biological target: human (hACC2) ACC2 (Homo sapiens, UniProt O00763); assay: In vitro Acetyl-CoA Carboxylase (ACC) inhibition assay (ADP-Glo), hACC2; format: biochemical
Sequence of human (hACC2) ACC2 (O00763 whole entry): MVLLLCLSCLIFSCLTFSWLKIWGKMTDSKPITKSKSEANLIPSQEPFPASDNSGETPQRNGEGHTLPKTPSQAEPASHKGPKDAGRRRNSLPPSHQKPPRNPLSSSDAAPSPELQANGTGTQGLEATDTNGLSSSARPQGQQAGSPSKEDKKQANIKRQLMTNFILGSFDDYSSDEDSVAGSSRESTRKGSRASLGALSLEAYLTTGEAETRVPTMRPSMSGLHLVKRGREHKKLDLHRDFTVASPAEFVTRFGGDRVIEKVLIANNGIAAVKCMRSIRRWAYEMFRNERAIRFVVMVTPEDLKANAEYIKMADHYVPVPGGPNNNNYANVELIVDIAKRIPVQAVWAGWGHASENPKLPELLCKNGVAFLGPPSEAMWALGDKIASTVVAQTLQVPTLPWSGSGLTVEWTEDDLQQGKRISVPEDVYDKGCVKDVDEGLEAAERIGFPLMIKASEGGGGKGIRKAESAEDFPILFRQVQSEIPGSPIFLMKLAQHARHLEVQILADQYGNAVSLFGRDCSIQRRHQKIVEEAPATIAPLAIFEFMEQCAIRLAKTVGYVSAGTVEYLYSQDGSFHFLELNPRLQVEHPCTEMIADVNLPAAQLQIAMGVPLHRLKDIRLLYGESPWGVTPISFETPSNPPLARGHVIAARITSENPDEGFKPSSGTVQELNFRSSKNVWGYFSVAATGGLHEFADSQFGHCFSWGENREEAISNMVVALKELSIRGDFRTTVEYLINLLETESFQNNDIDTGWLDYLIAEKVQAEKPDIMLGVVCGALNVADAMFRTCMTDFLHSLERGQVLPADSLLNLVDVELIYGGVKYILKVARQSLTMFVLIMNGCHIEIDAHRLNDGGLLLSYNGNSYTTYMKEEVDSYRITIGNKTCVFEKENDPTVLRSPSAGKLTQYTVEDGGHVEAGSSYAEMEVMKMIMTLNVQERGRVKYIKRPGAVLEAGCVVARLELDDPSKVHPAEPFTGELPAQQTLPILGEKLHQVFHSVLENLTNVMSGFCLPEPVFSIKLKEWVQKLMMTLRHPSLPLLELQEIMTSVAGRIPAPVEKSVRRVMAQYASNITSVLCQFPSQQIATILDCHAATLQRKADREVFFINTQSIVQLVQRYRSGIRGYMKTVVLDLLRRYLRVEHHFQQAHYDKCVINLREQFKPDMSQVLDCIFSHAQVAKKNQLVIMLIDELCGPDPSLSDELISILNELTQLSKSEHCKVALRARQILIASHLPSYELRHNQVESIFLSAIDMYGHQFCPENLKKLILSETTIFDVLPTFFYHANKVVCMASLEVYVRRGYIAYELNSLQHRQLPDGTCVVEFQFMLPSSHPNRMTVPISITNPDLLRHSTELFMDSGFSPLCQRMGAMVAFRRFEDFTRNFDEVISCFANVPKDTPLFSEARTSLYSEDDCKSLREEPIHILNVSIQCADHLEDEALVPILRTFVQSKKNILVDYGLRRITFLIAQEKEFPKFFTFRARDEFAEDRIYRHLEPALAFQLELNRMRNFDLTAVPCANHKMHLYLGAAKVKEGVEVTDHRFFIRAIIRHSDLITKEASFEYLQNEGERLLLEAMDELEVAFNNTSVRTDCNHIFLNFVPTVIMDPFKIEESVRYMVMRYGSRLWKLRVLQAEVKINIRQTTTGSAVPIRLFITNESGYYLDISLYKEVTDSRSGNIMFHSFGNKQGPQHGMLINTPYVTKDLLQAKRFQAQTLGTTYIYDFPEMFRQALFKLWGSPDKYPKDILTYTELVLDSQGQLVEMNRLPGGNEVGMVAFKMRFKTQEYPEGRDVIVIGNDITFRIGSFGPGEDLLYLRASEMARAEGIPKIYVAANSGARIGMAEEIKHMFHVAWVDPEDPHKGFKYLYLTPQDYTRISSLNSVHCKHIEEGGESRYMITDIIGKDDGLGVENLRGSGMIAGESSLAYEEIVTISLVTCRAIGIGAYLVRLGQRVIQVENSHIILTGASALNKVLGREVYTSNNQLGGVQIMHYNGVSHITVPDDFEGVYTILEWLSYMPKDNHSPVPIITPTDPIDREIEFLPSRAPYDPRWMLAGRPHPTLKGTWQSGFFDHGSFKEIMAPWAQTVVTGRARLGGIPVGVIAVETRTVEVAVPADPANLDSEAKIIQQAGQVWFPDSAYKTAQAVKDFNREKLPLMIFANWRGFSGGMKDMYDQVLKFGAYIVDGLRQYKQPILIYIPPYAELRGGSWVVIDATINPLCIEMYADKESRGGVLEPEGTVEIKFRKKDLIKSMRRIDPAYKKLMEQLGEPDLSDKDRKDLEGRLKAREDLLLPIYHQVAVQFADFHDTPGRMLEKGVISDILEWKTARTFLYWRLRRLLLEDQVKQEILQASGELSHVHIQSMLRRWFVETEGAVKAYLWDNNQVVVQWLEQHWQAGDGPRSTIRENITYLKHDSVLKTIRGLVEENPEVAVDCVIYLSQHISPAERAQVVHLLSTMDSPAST
Method: The detailed procedure is as follows. […] 10 μL ADP glo reagent was added. […] 20 μL kinase detection reagent was added.
“NA” stands for “not assayed.”

[5] = system: Rhizoctonia solani (Rs); assay: Growth inhibition assay of fungal pathogens; format: cell-based; details: 48 h, read-out: Concentration at 90% Inhibition Rs
Method: (§2) Compounds of the present invention were evaluated in a growth inhibition assay to determine the ability to control the growth of fungal pathogens, such as Botrtyis cinerea (Bc), Collectotrichum graminicola (Cg). Diplodia maydis (Dm), Fusarium moniliforme (Fm), Fusarium virguliforme (Fv), Phytophthora capsici (Pc), Rhizoctonia solani (Rs), and Septoria tritici (St). Compounds to be tested were dissolved in DMSO at 2.5 mg/ml to produce compound stock solutions (“stocks”). Stocks were diluted with DMSO by a five-fold dilution in a 96-well stock plate, and two sets of final concentrations of 50, 10, and 2 ppm or 2, 0.4, and 0.08 ppm were obtained in vitro. A set of positive controls was also prepared, with various concentrations of Soraphen (2, 0.4, and 0.08 ppm), Metalaxyl (1.1, 0.22, and 0.04 ppm), and Metconazole (2, 0.4, and 0.08 ppm or 0.2, 0.04, and 0.008 ppm) after the five-fold dilutions. Negative controls on each plate included 2% DMSO, water, and a blank (media+2% DMSO). Fungal spores were isolated from previously sub-cultured plates of Botrtyis cinerea (Bc). Collectotrichum graminicola (Cg). Diplodia maydis (Dm), Fusarium moniliforme (Fm), Fusarium virguliforme (Fv), Phytophthora capsici (Pc), and Septoria tritici (St). The isolated spores were diluted to individual concentrations with a 17% V8 liquid media. For Rhizoctonia solani (Rs) and Pythium irregulare, 1.5 mm mycelial plugs were used in place of spores and ¼ Potato Dextrose Broth (PDB) was used for dilution. The spore concentrations and plug sizes were based on growth curves generated at 48 hours for each pathogen. In a second 96-well plate, the spores or mycelial plugs, media, diluted compound solutions, and controls were combined. Once the compound was added, a true final concentration of compound in each well was measured by an OD600 reading, which adjusted for any compound precipitation that might have occurred in the well. Plate readings were repeated at both 24 and 48 hours. The blank negative control was used as a background subtraction. Additional visual ratings were performed at both 24 and 48 hours for checking on precipitation and confirming efficacy. Visual and OD600 ratings of the compounds at 48 hours were compared to the 2% DMSO negative control, and the percent of pathogen growth inhibition was determined based on those values.

[6] = system: Fusarium virguliforme (Fv); assay: Growth inhibition assay of fungal pathogens; format: cell-based; details: 48 h
Method: as §2

[7] = system: Fusarium moniliforme (Fm); assay: Growth inhibition assay of fungal pathogens; format: cell-based; details: for IC90: Fusarium verticillioides, 48 h, read-out: Concentration at 90% Inhibition Fm
Method: as §2

[8] = system: Collectotrichum graminicola (Cg); assay: Growth inhibition assay of fungal pathogens; format: cell-based; details: 48 h, read-out: Concentration at 90% Inhibition Cg
Method: as §2

[9] = system: Phytophthora capsici (Pc); assay: Growth inhibition assay of fungal pathogens; format: cell-based; details: for IC90: Phytophthora capsici, read-out: Concentration at 90% Inhibition Pc
Method: as §2

[10] = system: Septoria tritici (St); assay: Growth inhibition assay of fungal pathogens; format: cell-based; details: for IC90: Zymoseptoria tritici, read-out: Concentration at 90% Inhibition St
Method: as §2

[11] = system: Botrtyis cinerea (Bc); assay: Growth inhibition assay of fungal pathogens; format: cell-based; details: 48 h, read-out: Concentration at 90% Inhibition Bc
Method: as §2

[12] = system: Diplodia maydis (Dm); assay: Growth inhibition assay of fungal pathogens; format: cell-based; details: Stenocarpella maydis, 48 h, read-out: Concentration at 90% Inhibition Dm
Method: as §2

[13] = read-out: Concentration at 90% Inhibition Fv, Table 4a, 48 hours
[14] = read-out: Concentration at 90% Inhibition Fv, Table 4b, 48 hours

SMILES: COc1ccc(F)cc1[C@H](Cn1c(=O)n(C(C)(C)C(=O)N2CCCC2)c(=O)c2c(C)c(-n3cccn3)sc21)O[C@H]1CC[C@@H](O)CC1 [Compound I-15, 1-((R)-2-(5-fluoro-2-methoxyphenyl)-2-(((1s,4S)-4-hydroxycyclohexyl)oxy)ethyl)-5-methyl-3-(2-methyl-1-oxo-1-(pyrrolidin-1-yl)pro-pan-2-yl)-6-(1H-pyrazol-1-yl)thieno[2,3-d]pyrimidine-2,4(1H,3H)-dione]
- MIC ([1]; ATCC22019, 3 replicates, MIC recorded at 48 h): 0.25 to 1 µg/mL (≈ 0.382 to 1.53 µM)
- MIC ([2]; ATCC6258, 3 replicates, MIC recorded at 48 h): 1.1 to 2 µg/mL (≈ 1.68 to 3.06 µM)
- MIC ([3]; ATCC90028, 3 replicates, MIC recorded at 48 h): 0.25 to 1 µg/mL (≈ 0.382 to 1.53 µM)
- IC50 [4]: 3 to 10 nM
- IC90 ([5]; Table 4a): > 50 µg/mL
- IC90 ([5]; Table 4b): 10 µg/mL (≈ 15.3 µM)
- IC90 ([6]; Table 4a, 48 hours, read-out: Concentration at 90% Inhibition Fv): 2 µg/mL (≈ 3.06 µM)
- IC90 ([6]; Table 4b, 48 hours, read-out: Concentration at 90% Inhibition Fv): 2 µg/mL (≈ 3.06 µM)
- IC90 ([7]; Table 4a, 48 hours): 0.4 µg/mL (≈ 0.612 µM)
- IC90 ([7]; Table 4b, 48 hours): 0.4 µg/mL (≈ 0.612 µM)
- IC90 ([8]; Table 4a): > 50 µg/mL
- IC90 ([8]; Table 4b): 10 µg/mL (≈ 15.3 µM)
- IC90 ([9]; Table 4a, 48 hours): > 50 µg/mL
- Concentration at 90% Inhibition Pc ([9]; Table 4b, 48 hours): D (“D” provided a compound concentration of >50 ppm at 90% inhibition of fungal pathogens)
- Concentration at 90% Inhibition St ([10]; Table 4b, 48 hours): D (“D” provided a compound concentration of >50 ppm at 90% inhibition of fungal pathogens)
- IC90 ([10]; Table 4a, 48 hours): > 50 µg/mL
- IC90 ([11]; Table 4a): 2 µg/mL (≈ 3.06 µM)
- IC90 ([11]; Table 4b): 2 µg/mL (≈ 3.06 µM)
- IC90 ([12]; Table 4a): > 50 µg/mL
- IC90 ([12]; Table 4b): 10 µg/mL (≈ 15.3 µM)

SMILES: COc1ccccc1[C@H](Cn1c(=O)n(C(C)(C)C(=O)N2CCCCC2)c(=O)c2c(C)c(-n3cccn3)sc21)OCC(C)C [Compound I-23, (R)-1-(2-isobutoxy-2-(2-methoxyphenyl)ethyl)-5-methyl-3-(2-methyl-1-oxo-1-(piperidin-1-yl)propan-2-yl)-6-(1H-pyrazol-1-yl)thieno[2,3-d]pyrimidine-2,4(1H,3H)-dione]
- MIC ([1]; ATCC22019, 48 h): 1.1 to 2 µg/mL (≈ 1.81 to 3.29 µM)
- MIC ([2]; ATCC6258, 48 h): 0.25 to 1 µg/mL (≈ 0.411 to 1.65 µM)
- MIC ([3]; ATCC90028, 48 h): 0.25 to 1 µg/mL (≈ 0.411 to 1.65 µM)
- IC50 [4]: 10 to 40 nM
- IC90 ([5]; Table 4a): > 50 µg/mL
- IC90 ([5]; Table 4b): > 50 µg/mL
- IC90 [6, 13]: > 50 µg/mL
- IC90 [6, 14]: > 50 µg/mL
- IC90 [7]: 0.4 µg/mL (≈ 0.658 µM)
- Concentration at 90% Inhibition Fm ([7]; Table 4b, 48 hours): A (“A” provided a compound concentration of 0.4 ppm at 90% inhibition of fungal pathogens)
- IC90 ([8]; Table 4a): > 50 µg/mL
- IC90 ([8]; Table 4b): 10 µg/mL (≈ 16.5 µM)
- IC90 ([9]; 48 h, Table 4a): > 50 µg/mL
- IC90 ([9]; 48 h, Table 4b): > 50 µg/mL
- IC90 ([10]; 48 h, Table 4a): > 50 µg/mL
- IC90 ([10]; 48 h, Table 4b): > 50 µg/mL
- IC90 ([11]; Table 4a): 2 µg/mL (≈ 3.29 µM)
- IC90 ([11]; Table 4b): 2 µg/mL (≈ 3.29 µM)
- IC90 ([12]; Table 4a): 10 µg/mL (≈ 16.5 µM)
- IC90 ([12]; Table 4b): 2 µg/mL (≈ 3.29 µM)

SMILES: COc1ccccc1[C@H](Cn1c(=O)n(C(C)(C)C(=O)NC(C)C)c(=O)c2c(C)c(-n3cccn3)sc21)OCC(C)C [Compound I-21, (R)-2-(1-(2-isobutoxy-2-(2-methoxyphenyl)ethyl)-5-methyl-2,4-dioxo-6-(1H-pyrazol-1-yl)-1,4-dihydrothieno[2,3-d]pyrimidin-3(2H)-yl)-N-isopropyl-2-methylpropanamide]
- MIC ([1]; ATCC22019, 48 h): 0.25 to 1 µg/mL (≈ 0.43 to 1.72 µM)
- MIC ([2]; ATCC6258, 48 h): 0.25 to 1 µg/mL (≈ 0.43 to 1.72 µM)
- MIC ([3]; ATCC90028, 48 h): 0.25 to 1 µg/mL (≈ 0.43 to 1.72 µM)
- IC50 [4]: 10 to 40 nM
- IC90 ([5]; Table 4a): 2 µg/mL (≈ 3.44 µM)
- IC90 ([5]; Table 4b): 2 µg/mL (≈ 3.44 µM)
- IC90 [6, 13]: > 50 µg/mL
- IC90 [6, 14]: 10 µg/mL (≈ 17.2 µM)
- IC90 [7]: 0.4 µg/mL (≈ 0.688 µM)
- Concentration at 90% Inhibition Fm ([7]; Table 4b, 48 hours): A (“A” provided a compound concentration of 0.4 ppm at 90% inhibition of fungal pathogens)
- IC90 ([8]; Table 4a): > 50 µg/mL
- IC90 ([8]; Table 4b): 10 µg/mL (≈ 17.2 µM)
- IC90 ([9]; 48 h, Table 4a): > 50 µg/mL
- IC90 ([9]; 48 h, Table 4b): > 50 µg/mL
- IC90 ([10]; 48 h, Table 4a): > 50 µg/mL
- IC90 ([10]; 48 h, Table 4b): > 50 µg/mL
- IC90 ([11]; Table 4a): 2 µg/mL (≈ 3.44 µM)
- IC90 ([11]; Table 4b): 2 µg/mL (≈ 3.44 µM)
- IC90 ([12]; Table 4a): 10 µg/mL (≈ 17.2 µM)
- IC90 ([12]; Table 4b): 2 µg/mL (≈ 3.44 µM)

SMILES: COc1ccc(F)cc1[C@H](Cn1c(=O)n(C(C)(C)C(=O)N2CCCCC2)c(=O)c2c(C)c(-n3cccn3)sc21)OC1CCOCC1 [Compound I-8, (R)-1-(2-(5-fluoro-2-methoxyphenyl)-2-((tetrahydro-2H-pyran-4-yl)oxy)ethyl)-5-methyl-3-(2-methyl-1-oxo-1-(piperidin-1-yl)propan-2-yl)-6-(1H-pyrazol-1-yl)thieno[2,3-d]pyrimidine-2,4(1H,3H)-dione]
- MIC ([1]; ATCC22019, 48 h): 0.25 to 1 µg/mL (≈ 0.382 to 1.53 µM)
- MIC ([2]; ATCC6258, 48 h): 0.25 to 1 µg/mL (≈ 0.382 to 1.53 µM)
- MIC ([3]; ATCC90028, 48 h): 0.25 to 1 µg/mL (≈ 0.382 to 1.53 µM)
- IC50 [4]: 10 to 40 nM
- IC90 ([5]; Table 4a): > 50 µg/mL
- IC90 ([5]; Table 4b): 10 µg/mL (≈ 15.3 µM)
- IC90 [6, 13]: 2 µg/mL (≈ 3.06 µM)
- IC90 [6, 14]: 2 µg/mL (≈ 3.06 µM)
- IC90 [7]: 0.08 µg/mL (≈ 0.122 µM)
- Concentration at 90% Inhibition Fm ([7]; Table 4b, 48 hours): AA (“AA” provided a compound concentration of 0.08 ppm at 90% inhibition of fungal pathogens)
- IC90 ([8]; Table 4a): 2 µg/mL (≈ 3.06 µM)
- IC90 ([8]; Table 4b): 2 µg/mL (≈ 3.06 µM)
- IC90 ([9]; 48 h, Table 4a): > 50 µg/mL
- IC90 ([9]; 48 h, Table 4b): > 50 µg/mL
- IC90 ([10]; 48 h, Table 4a): > 50 µg/mL
- IC90 ([10]; 48 h, Table 4b): > 50 µg/mL
- IC90 ([11]; Table 4a): 2 µg/mL (≈ 3.06 µM)
- IC90 ([11]; Table 4b): 2 µg/mL (≈ 3.06 µM)
- IC90 ([12]; Table 4a): 10 µg/mL (≈ 15.3 µM)
- IC90 ([12]; Table 4b): 2 µg/mL (≈ 3.06 µM)
